Assay results reported in patent publication US9511072B2, “Methods of modulating cell proliferation and cyst formation in polycystic kidney and liver diseases” (The Medical College of Wisconsin, Inc., priority 2006, dated 2016).
Entries after “also recorded” stand apart in the source; their conditions may differ.

How the values were obtained:
cystic PCK CT cells = experiment: BrdU proliferation of primary cystic PCK collecting tubule cells; type: cell-based, rat; details: 10 μM, 36 hours; vehicle 28.5%±1%
Method: Renal CT cells from the PCK rat were isolated as described in Sweeney W. E. et al., Am J Physiol C Physiol, 2001, 281:C1695-705, using monoclonal F-13 a principal cells specific surface marker (Fejes-Toth N et al., J Tiss Cult Meth 1991, 13:179-184).
To determine the level of proliferation in the cystic PCK CT cells, the cells were incubated with HET-0016 (10 μM) or vehicle for 36 hours. Three hours prior to the harvesting of the cells, 5-bromo-2′-deoxyuridine (BrdU) at a concentration of 30 μM was added to determine the level of cell cycle inhibition. The cells were subsequently methanol fixed and BrdU-positive cells were identified by immunohistology with biotinylated monoclonal anti-BrdU antibody (Zymed, South San Francisco, Calif.). Data were expressed as the percentage of BrdU-labeled cells per 500 counted cells. In the vehicle treated group, 28.5%±1% (n=3) were labeled with BrdU. In the HET-0016 treated group, 10.8%±1% (n=3) were labeled with BrdU.

[1] = system: EGF receptor (EGFR) phosphorylation in REC11 cells; experiment: Western blot of phosphorylated EGFR in REC11 cystic cells; type: cell-based, mouse; details: 10 μM
From the text: (§1) REC11 cystic cell line is a conditionally immortalized epithelial collecting tubule (CT) cell line derived from the cystic kidneys of the BPK mouse model of human ARPKD crossed to the ImmortoMouse. The BPK mouse as a human ARPKD model has been described in Nauta J. et al., Pediatr Nephrol 1993, 7:163-172 and Nauta J. et al., Pediatr Res 1995, 37:755-763. The procedures for immortalization, cell isolation, cell culture and the complete phenotypic characterization of this cell line have been described in detail in Sweeney W. E. et al., Am J Physiol C Physiol 2001, 281:C1695-705. All analysis and experiments were performed on REC11 cells grown for a minimum 6 days under non-permissive conditions to eliminate residual Large T. REC12 cell line is a conditionally immortalized epithelial collecting tubule (CT) cell line derived from the wild-type Balb/C littermates. The Balb/C is the strain of mice in which the BPK mutation arose (Nauta J. et al., Pediatr Nephrol 1993, 7:163-172 and Nauta J. et al., Pediatr Res 1995, 37:755-763).
(§2) REC11 cells (FIG. 2, lanes A and B) and control renal epithelial cells (REC12 cells: FIG. 2, lanes C and D) were grown for 10 days. Next, the cells were exposed to vehicle (lanes A and C) or 10 μM HET0016 (lanes B and D) and then harvested for assessment of the expression of phosphorylated EGFR by Western Blot analysis.

[2] = system: EGF receptor (EGFR) phosphorylation in REC12 cells; experiment: Western blot of phosphorylated EGFR in normal REC12 cells; type: cell-based, mouse; details: 10 μM, REC12 normal renal epithelial cells
From the text: as §1, §2

[3] = system: Cyp4a12-expressing Balb/C cells; experiment: Cell counting of Cyp4a12-transduced non-cystic Balb/C cells; type: cell-based, mouse; details: 10 μM
Method: (§3) For the cell counting experiments, the non-cystic Balb/C (+/+) and cystic BPK renal epithelial cells were seeded in 6-well dishes and changed into media lacking γ-IFN at 37° C. (non-permissive conditions) for at least 6 additional days prior to assessing any phenotypic analyses to ensure the loss of the T antigen (Sweeney W E et al. Am J Physiol Cell Physiol, 281:C1695-705, 2001). Cells were harvested by tryptic digestion and counted by light microscopy using a hemocytometer.
(§4) The cells in this experiment were transduced using the lentiviral vectors in the presence of γ-IFN (i.e., permissive state) and allowed to expand. Once the cells were expanded, the transduced cells were grown in the absence of γ-IFN (i.e., non-permissive state) for 10 days. The cells were harvested and counted to initiate the proliferation experiment.
There was no significant difference (P>0.05) between Balb/C cells treated with vehicle or the EGFP-transduced lentiviral vectors.

REC11 cells = experiment: BrdU proliferation of EGF-stimulated REC11 cystic renal epithelial cells; type: cell-based, mouse; details: 36 hrs, after EGF 25 ng/ml for 6 hours
From the text: as §1, with “T.” for “T. REC12 cell line is a conditionally immortalized epithelial collecting tubule (CT) cell line derived from the wild-type Balb/C littermates. The Balb/C is the strain of mice in which the BPK mutation arose (Nauta J. et al., Pediatr Nephrol 1993, 7:163-172 and Nauta J. et al., Pediatr Res 1995, 37:755-763).”
Proliferation of REC11 cells was stimulated by exposure of the cells for 6 hours with EGF (25 ng/ml). Next, the cells were treated with vehicle, HET0016 (10 μM, a 20-HETE synthesis inhibitor), HET0016 (20 μM), DDMS (10 μM, a 20-HETE synthesis inhibitor), or WIT-002 (10 μM, a 20-HETE antagonist) for 36 hrs, pulsed with BrdU, and then stained for BrdU labeled cells to determine the degree of cell proliferation. […] Cells treated with a higher dose of HET0016 (20 μM) (column C) reduced proliferation by 75% (p<0.020). Cells treated with another chemically dissimilar inhibitor of the synthesis of 20-HETE, DDMS (10 μM) (column D), reduced proliferation by 47% (p<0.05). Cells treated with WIT-002 (10 μM) (column E) reduced proliferation by 25%.

[4] = system: cystic BPK renal epithelial cells; experiment: Cell counting of cystic BPK renal epithelial cells; type: cell-based, mouse; details: 10 μM added daily, day 2, non-permissive conditions
Method: as §3, §4

N-hydroxy-N-(4-butyl-2-methylphenyl)-formamidine [HET0016]
cells labeled with BrdU (per 500 counted cells) (cystic PCK CT cells): 10.8%±1%
phosphorylation of EGFR [1]: reduced the phosphorylation of EGFR
phosphorylation of EGFR [2]: but not in normal renal epithelial cells; also recorded: lack of an effect
increased cell proliferation of Balb/C cells over-expressing Cyp4a12 [3]: completely abolished the increased cell proliferation
number of Cyp4a12-expressing Balb/C cells ([3]; day 3, without inhibitor 285,792±21,892): 49,700±5,085
reduction of proliferation (BrdU labeled cells) vs vehicle (REC11 cells; 10 μM): 66%
reduction of proliferation (BrdU labeled cells) vs vehicle (REC11 cells; 20 μM): 75%
number of cystic BPK cells [4]: 40,744±4,322
